How the values were obtained:
A549 cells = assay: Flow cytometry, lectin binding to A549 cells (glycosylation inhibitors, glycosidases); assay type: cell-based, human; details: for Percentage of inhibition of MAH binding (mean fluorescence intensity): MAH 5 μg ml^-1; for Percentage of inhibition of rPVL binding (mean fluorescence intensity): biotinylated rPVL 1 μg ml^-1
M119 = system: M119; parameters: key to the marks not given beside the values; details: M119, Melanoma
[1] = system: glandular compartment of the stomach and small intestine; assay: Labeling of healthy tissues by biotinylated rPVL; details: 100 mM GlcNAc
Protocol: Ethanol-fixed human trachea, esophagus, duodenal junction, jejunum, colon, pancreas, liver, ovary, uterus and vagina samples were obtained from organ donors. 18 tissue samples from 10 different individuals were used to prepare a tissue microarray (TMA) of healthy tissues.
The tissue sections were deparaffinized, then endogenous peroxidases were blocked by incubating the sections with PBS containing 3% hydrogen peroxide (v/v), for 5 mn. The sections were then blocked with BSA 5% (w/v) for 30 min at room temperature, followed by incubation with 0,7–1 μg ml^-1 biotinylated rPVL 1h at room temperature (Ethanol-fixed sections) or 2 μg ml^-1 of biotinylated rPVL in PBS at 4°C for 18h (for formalin-fixed sections). After washing the sections twice with PBS, an indirect biotin-streptavidin system and DAB (Ventana Medical Systems) or AEC (Vector laboratories) detection kits were used according to the manufacturer’s instructions. The developed slides were washed twice with PBS and counterstained with hematoxylin. After washing with water, the sections were dehydrated and mounted. Sections were observed under a BX41 microscope equipped with a DP-70 digital camera system (Olympus, Tokyo, Japan) or imaged with a NanoZoomer slide-scanner (Hamamatsu, Hamamatsu City).

HBEC-3KT cell line = assay type: cell-based, human

CC(=O)OC1O[C@@H](C)[C@@H](OC(C)=O)[C@@H](OC(C)=O)[C@@H]1F (stereo partly shown) [2-FF, 2-fluoro-peracetyl fucose]
Percentage of inhibition of MAH binding (mean fluorescence intensity) (A549 cells; A549 cells grown 4 days with 400 μM 2-Fluoro-Fucose, listed as 2F-fucose): did not affect | Percentage of inhibition of rPVL binding (mean fluorescence intensity) (A549 cells; listed as 2F-fucose): did not affect

3-fluoro-peracetyl-neuraminic acid [3F-NeuAc]
Percentage of inhibition of MAH binding (mean fluorescence intensity) (A549 cells; A549 cells grown 4 days with 100 μM Fluoro-Neu5Ac): 75% | Percentage of inhibition of rPVL binding (mean fluorescence intensity) (A549 cells): 59%

CC(=O)N[C@@H]1[C@@H](O)[C@H](O)[C@@H](CO)O[C@H]1O [GlcNAc, N-acetylglucosamine]
Inhibtion by GlcNac (of PVL staining) (M119): ++ | inhibition of rPVL staining by GlcNAc (in words) [1]: partial inhibition | inhibition of rPVL binding by GlcNAc (in words) (HBEC-3KT cell line): complete inhibition

— publication PMC4456360, “A Recombinant Fungal Lectin for Labeling Truncated Glycans on Human Cancer Cells” (PLoS ONE, 2015)
